How the values were obtained:
FAAH = target: T1, FAAH (Mus musculus, UniProt O08914); assay: In vitro competitive activity-based protein profiling, mouse FAAH; type: biochemical; details: for inhibition at 1 µM: read-out: FAAH % inh. 1 μM (mouse); for inhibition at 10 µM: read-out: FAAH % inh. at 10 μM (mouse)
T1 construct: mouse brain membrane fraction or cell lysates for mouse assays; from tissue
T1 sequence (O08914 1-579): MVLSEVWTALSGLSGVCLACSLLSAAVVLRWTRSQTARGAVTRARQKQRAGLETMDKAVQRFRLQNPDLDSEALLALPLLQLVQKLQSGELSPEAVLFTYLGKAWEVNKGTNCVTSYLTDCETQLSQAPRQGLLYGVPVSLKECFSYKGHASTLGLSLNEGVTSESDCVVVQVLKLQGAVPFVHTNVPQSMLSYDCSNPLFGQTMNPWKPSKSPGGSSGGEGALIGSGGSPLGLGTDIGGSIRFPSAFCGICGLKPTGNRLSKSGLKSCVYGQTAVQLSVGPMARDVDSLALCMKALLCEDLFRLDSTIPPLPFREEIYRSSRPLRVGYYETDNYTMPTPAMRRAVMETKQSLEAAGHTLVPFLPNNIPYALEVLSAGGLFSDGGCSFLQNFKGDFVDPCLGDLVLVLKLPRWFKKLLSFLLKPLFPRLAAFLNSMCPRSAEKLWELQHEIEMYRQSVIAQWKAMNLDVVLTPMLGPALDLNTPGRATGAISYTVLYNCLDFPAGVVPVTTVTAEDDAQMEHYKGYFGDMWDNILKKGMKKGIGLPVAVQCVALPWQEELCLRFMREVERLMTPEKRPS
Protocol: (§1) In Vitro Competitive Activity-Based Protein Profiling.
(§2) Proteomes (mouse brain membrane fraction or cell lysates for mouse assays; human prefrontal cortex or cell membrane fractions for human assays) (50 μL, 1.0 mg/mL total protein concentration) were preincubated with varying concentrations of inhibitors at 37° C. After 30 min, FP-Rh or HT-01 (1.0 μL, 50 μM in DMSO) was added and the mixture was incubated for another 30 min at 37° C. Reactions were quenched with SDS loading buffer (15 μL—4×) and run on SDS-PAGE. Following gel imaging, serine hydrolase activity was determined by measuring fluorescent intensity of gel bands corresponding to MAGL and FAAH using ImageJ 1.43u software.

MAGL = target: T2, MAGL (Mus musculus, UniProt O35678); assay: In vitro competitive activity-based protein profiling, mouse MAGL; type: biochemical; details: for inhibition at 1 µM: read-out: MAGL % inh. 1 μM (mouse); for inhibition at 10 µM: read-out: MAGL % inh. at 10 μM (mouse)
T2 construct: mouse brain membrane fraction or cell lysates for mouse assays; from tissue
T2 sequence (O35678 1-303): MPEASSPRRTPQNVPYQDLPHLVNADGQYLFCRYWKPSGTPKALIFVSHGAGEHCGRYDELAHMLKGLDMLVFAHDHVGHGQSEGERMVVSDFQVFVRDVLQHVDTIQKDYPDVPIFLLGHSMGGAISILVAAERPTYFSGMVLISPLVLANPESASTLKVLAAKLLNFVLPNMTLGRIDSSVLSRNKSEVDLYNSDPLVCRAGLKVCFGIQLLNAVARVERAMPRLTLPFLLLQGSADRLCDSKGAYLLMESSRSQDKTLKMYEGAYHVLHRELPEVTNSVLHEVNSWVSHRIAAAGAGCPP
Protocol: as §1, §2

SMILES | inhibition at 1 µM (FAAH; 1 μM) | inhibition at 1 µM (MAGL) | other results
NC(=O)c1cnn(C(=O)N2CCC3(CCN(Cc4ccc(Cl)cc4)C3)C2)c1 (centres unmarked) [Example 37, 1-(7-(4-chlorobenzyl)-2,7-diazaspiro[4.4]nonane-2-carbonyl)-1H-pyrazole-4-carboxamide] | ≥ 75% | 50 to 75% | IC50 (FAAH): ≤ 100 nM; IC50 (MAGL): 1000 to 10000 nM
CNC(=O)c1cnn(C(=O)N2CCC3(CCN(Cc4ccc(Cl)cc4)C3)C2)c1 (centres unmarked) [Example 38, 1-(7-(4-chlorobenzyl)-2,7-diazaspiro[4.4]nonane-2-carbonyl)-N-methyl-1H-pyrazole-4-carboxamide] | ≥ 75% | 0 to 25% | IC50 (FAAH): 100 to 1000 nM; IC50 (MAGL): 1000 to 10000 nM
CNC(=O)c1cnn(C(=O)N2CCC3(CCN(Cc4cc(Cl)ccc4Cl)C3)C2)c1 (centres unmarked) [Example 40, 1-(7-(2,5-dichlorobenzyl)-2,7-diazaspiro[4.4]nonane-2-carbonyl)-N-methyl-1H-pyrazole-4-carboxamide] | ≥ 75% | ≥ 75% | 
CNC(=O)c1cnn(C(=O)N2CCC3(CCN(Cc4cc(Cl)cc(C(F)(F)F)c4)C3)C2)c1 (centres unmarked) [Example 44, 1-(7-(3-chloro-5-(trifluoromethyl)benzyl)-2,7-diazaspiro[4.4]nonane-2-carbonyl)-N-methyl-1H-pyrazole-4-carboxamide] | ≥ 75% | ≥ 75% | 
CN(Cc1ccc(C(F)(F)F)cc1)[C@@H]1C[C@@H]2CN(C(=O)n3cc(C(=O)N4CCOCC4)cn3)C[C@@H]2C1 [Example 53, (cis-5-(methyl(4-(trifluoromethyl)benzyl)amino)hexahydrocyclopenta[c]pyrrol-2(1H)-yl)(4-(morpholine-4-carbonyl)-1H-pyrazol-1-yl)methanone] | ≥ 75% | 25 to 50% | 
CNC(=O)c1cnn(C(=O)N2C[C@H]3C[C@@H](N(C)Cc4ccccc4Cl)C[C@H]3C2)c1 [Example 56, 1-(trans-5-((2-chlorobenzyl)(methyl)amino)octahydrocyclopenta[c]pyrrole-2-carbonyl)-N-methyl-1H-pyrazole-4-carboxamide] | ≥ 75% |  | MAGL % inh. 1 μM (mouse) (MAGL): C (% inhibition greater than or equal to 25% and less than 50%)
CN(Cc1ccccc1Cl)[C@@H]1C[C@@H]2CN(C(=O)n3cc(C(=O)N4CCCC4)cn3)C[C@@H]2C1 [Example 57, (trans-5-((2-chlorobenzyl)(methyl)amino)hexahydrocyclopenta[c]pyrrol-2(1H)-yl)(4-(pyrrolidine-1-carbonyl)-1H-pyrazol-1-yl)methanone] |  |  | FAAH % inh. 1 μM (mouse) (FAAH; 1 μM): A (% inhibition greater than or equal to 75%); MAGL % inh. 1 μM (mouse) (MAGL): B (% inhibition greater than or equal to 50% and less than 75%)
CN(Cc1ccccc1Cl)[C@@H]1C[C@@H]2CN(C(=O)n3cc(Cl)cn3)C[C@@H]2C1 [Example 58, (4-chloro-1H-pyrazol-1-yl)(cis-5-((2-chlorobenzyl)(methyl)amino)hexahydrocyclopenta[c]pyrrol-2(1H)-yl)methanone] | ≥ 75% | ≥ 75% | IC50 (FAAH): ≤ 100 nM; IC50 (MAGL): 100 to 1000 nM
CC(=O)N(Cc1cccc(Cl)c1)[C@@H]1C[C@@H]2CN(C(=O)n3cc(Cl)cn3)C[C@@H]2C1 [Example 60, N-(cis-2-(4-chloro-1H-pyrazole-1-carbonyl)octahydrocyclopenta[c]pyrrol-5-yl)-N-(3-chlorobenzyl)acetamide] | ≥ 75% | ≥ 75% | IC50 (FAAH): ≤ 100 nM; IC50 (MAGL): ≤ 100 nM
O=C(N1C[C@H]2C[C@@H](NCc3ccccc3Cl)C[C@H]2C1)n1cc(Cl)cn1 [Example 61, (4-chloro-1H-pyrazol-1-yl)(cis-5-((2-chlorobenzyl)amino)hexahydrocyclopenta[c]pyrrol-2(1H)-yl)methanone] | ≥ 75% | ≥ 75% | IC50 (FAAH): 100 to 1000 nM; IC50 (MAGL): 100 to 1000 nM

The next lines start with results.

inhibition at 1 µM (FAAH; 1 μM) | inhibition at 1 µM (MAGL) | SMILES | other results
≥ 75% | ≥ 75% | O=C(c1cnn(C(=O)N2CCC3(CCN(Cc4cc(Cl)ccc4Cl)C3)C2)c1)N1CCN(C2CC2)CC1 (centres unmarked) [Example 30, (4-cyclopropylpiperazin-1-yl)(1-(7-(2,5-dichlorobenzyl)-2,7-diazaspiro[4.4]nonane-2-carbonyl)-1H-pyrazol-4-yl)methanone] | 
≥ 75% | 25 to 50% | O=C(c1cnn(C(=O)N2CCC3(CCN(Cc4cccc(C(F)(F)F)c4)C3)C2)c1)N1CCCC1 (centres unmarked) [Example 31, pyrrolidin-1-yl(1-(7-(3-(trifluoromethyl)benzyl)-2,7-diazaspiro[4.4]nonane-2-carbonyl)-1H-pyrazol-4-yl)methanone] | 
≥ 75% | 0 to 25% | O=C(c1cnn(C(=O)N2CCC3(CCN(Cc4cccc(C(F)(F)F)c4)C3)C2)c1)N1CCOCC1 (centres unmarked) [Example 32, (4-(morpholine-4-carbonyl)-1H-pyrazol-1-yl)(7-(3-(trifluoromethyl)benzyl)-2,7-diazaspiro[4.4]nonan-2-yl)methanone] | inhibition at 10 µM (FAAH): 100%; inhibition at 10 µM (MAGL): 50%
50 to 75% | ≥ 75% | O=C(c1cnn(C(=O)N2CCC3(CCN(Cc4cccc(C(F)(F)F)c4)C3)C2)c1)N1CCN(C2CC2)CC1 (centres unmarked) [Example 33, (4-cyclopropylpiperazin-1-yl)(1-(7-(3-(trifluoromethyl)benzyl)-2,7-diazaspiro[4.4]nonane-2-carbonyl)-1H-pyrazol-4-yl)methanone] | 
≥ 75% | ≥ 75% | O=C(c1cnn(C(=O)N2CCC3(CCN(Cc4cc(Cl)cc(C(F)(F)F)c4)C3)C2)c1)N1CCCC1 (centres unmarked) [Example 34, (1-(7-(3-chloro-5-(trifluoromethyl)benzyl)-2,7-diazaspiro[4.4]nonane-2-carbonyl)-1H-pyrazol-4-yl)(pyrrolidin-1-yl)methanone] | 
25 to 50% | ≥ 75% | O=C(c1cnn(C(=O)N2CCC3(CCN(Cc4cc(Cl)cc(C(F)(F)F)c4)C3)C2)c1)N1CCOCC1 (centres unmarked) [Example 35, (1-(7-(3-chloro-5-(trifluoromethyl)benzyl)-2,7-diazaspiro[4.4]nonane-2-carbonyl)-1H-pyrazol-4-yl)(morpholino)methanone] | 
≥ 75% | ≥ 75% | O=C(c1cnn(C(=O)N2CCC3(CCN(Cc4cc(Cl)cc(C(F)(F)F)c4)C3)C2)c1)N1CCN(C2CC2)CC1 (centres unmarked) [Example 36, (1-(7-(3-chloro-5-(trifluoromethyl)benzyl)-2,7-diazaspiro[4.4]nonane-2-carbonyl)-1H-pyrazol-4-yl)(4-cyclopropylpiperazin-1-yl)methanone] | 
≥ 75% | 0 to 25% | CNC(=O)c1cnn(C(=O)N2CCC3(CCN(Cc4cccc(C(F)(F)F)c4)C3)C2)c1 (centres unmarked) [Example 42, N-methyl-1-(7-(3-(trifluoromethyl)benzyl)-2,7-diazaspiro[4.4]nonane-2-carbonyl)-1H-pyrazole-4-carboxamide] | inhibition at 10 µM (FAAH): 100%; inhibition at 10 µM (MAGL): 100%
≥ 75% | ≥ 75% | CNC(=O)c1cnn(C(=O)N2CCC3(CCN(Cc4ccc(N5CCOCC5)cc4C(F)(F)F)C3)C2)c1 (centres unmarked) [Example 49, N-methyl-1-(7-(4-morpholino-2-(trifluoromethyl)benzyl)-2,7-diazaspiro[4.4]nonane-2-carbonyl)-1H-pyrazole-4-carboxamide] | 
≥ 75% | 25 to 50% | O=C(c1cnn(C(=O)N2CCC3(CCN(Cc4ccc(N5CCOCC5)cc4C(F)(F)F)C3)C2)c1)N1CCOCC1 (centres unmarked) [Example 51, (4-(morpholine-4-carbonyl)-1H-pyrazol-1-yl)(7-(4-morpholino-2-(trifluoromethyl)benzyl)-2,7-diazaspiro[4.4]nonan-2-yl)methanone] | 
≥ 75% | ≥ 75% | O=C(c1cnn(C(=O)N2CCC3(CCN(Cc4ccc(N5CCOCC5)cc4C(F)(F)F)C3)C2)c1)N1CCN(C2CC2)CC1 (centres unmarked) [Example 52, (4-cyclopropylpiperazin-1-yl)(1-(7-(4-morpholino-2-(trifluoromethyl)benzyl)-2,7-diazaspiro[4.4]nonane-2-carbonyl)-1H-pyrazol-4-yl)methanone] | 

Source: patent US10385057B2, “Pyrazole compounds and methods of making and using same” (Lundbeck La Jolla Research Center, Inc., priority 2015, dated 2019)
